# In patent US5700682A, “Mechanism based screen for retinoid X receptor agonists and antagonists” (American Cyanamid Company, priority 1995, dated 1997):
# Tested on: RXRα binding to the apoAI gene site A
# Experiment: not given
# Conditions: reticulocyte lysates; cited from earlier work
row,Structure (SMILES),Binding of in vitro translated RXRα to apoAI gene site A on supplementing lysates with ligand
1,"CC1=C(/C=C/C(C)=C\C=C\C(C)=C\C(=O)O)C(C)(C)CCC1 [9-cis-RA, 9-cis-retinoic acid]",does not bind to the apoAI gene site A unless these lysates are supplemented
2,"CC1=C(/C=C/C(C)=C/C=C/C(C)=C/C(=O)O)C(C)(C)CCC1 [all-trans-RA, all-trans-retinoic acid]",to the lesser extent

# Target: T1, RXRα (Homo sapiens, UniProt P19793)
# T1 construct: reporter YRpA: two apoAI site A copies-CYC1-lacZ
# T1 sequence (P19793 1-462): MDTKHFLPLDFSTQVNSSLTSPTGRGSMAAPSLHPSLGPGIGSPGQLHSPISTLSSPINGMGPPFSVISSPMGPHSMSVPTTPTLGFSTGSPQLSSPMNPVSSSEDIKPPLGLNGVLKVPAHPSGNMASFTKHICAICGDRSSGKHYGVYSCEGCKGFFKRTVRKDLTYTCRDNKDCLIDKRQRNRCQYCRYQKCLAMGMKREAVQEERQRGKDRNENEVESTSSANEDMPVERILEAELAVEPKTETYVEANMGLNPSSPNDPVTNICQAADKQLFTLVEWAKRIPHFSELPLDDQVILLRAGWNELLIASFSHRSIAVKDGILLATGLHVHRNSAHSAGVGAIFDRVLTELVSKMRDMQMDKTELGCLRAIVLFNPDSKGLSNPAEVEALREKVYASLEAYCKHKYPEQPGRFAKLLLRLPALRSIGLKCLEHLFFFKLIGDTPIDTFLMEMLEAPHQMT
# Experiment: Plate assay (X-GAL, blue halo) as a screen to detect RXRα agonists
# Type: cell-based
# Conditions: discs containing hormone on agar plate with X-GAL; FIG. 7
# Excerpt: Yeast cells containing the RXRα expression plasmid and the reporter construct are inoculated in Yeast media containing the chromogenic substrate, X-GAL® (a registered trademark of 5-bromo-4-chloro-3-indolyl-β-D-galactopyranoside, commercially available from Gibco BRL, Bethesda, Md.).
# To identify nontoxic ligands of RXRα, the present invention includes a novel screen for detecting compounds having retinoid X receptor agonist or antagonist activity by the following steps: (1) Providing a yeast strain which expresses the […] and activates the reporter plasmid containing apoAI gene site A or a mutated variant thereof; (2) incubating the compound in suitable media and a colorless chromogenic substrate; and (3) examining the media for development of color. FIG. 7 illustrates the screen as a plate assay which detects RXRα agonists. Yeast cells containing the RXRα expression plasmid and the reporter construct are inoculated in yeast media containing the chromogenic substrate, X-GAL® (a registered trademark of 5-bromo-4-chloro-3-indolyl-β-D-galactopyranoside, commercially available from Gibco BRL, Bethesda, Md.). Other well-known chromogenic substrates may substitute for X-GAL®. Then, discs containing different test compounds may be placed on top of the agar plate. Induction of the reporter enzyme by the ligands of RXRα is reflected by the formation of a color.
row,Structure (SMILES),Induction of the reporter enzyme as reflected by formation of the blue halo
1,CC(C)(O)CC[C@@H](O)[C@](C)(O)[C@H]1CC[C@@]2(O)C3=CC(=O)[C@@H]4C[C@@H](O)[C@@H](O)C[C@]4(C)[C@H]3CC[C@]12C [20-hydroxyecdysone],observed for 9-cis retinoic acid and all-trans-retinoic acids only
2,C[C@]12CCC(=O)C=C1CC[C@@H]1[C@@H]2C(=O)C[C@@]2(C)[C@H]1CC[C@]2(O)C(=O)CO [cortisone],observed for 9-cis retinoic acid and all-trans-retinoic acids only
3,CC(=O)[C@H]1CC[C@H]2[C@@H]3CCC4=CC(=O)CC[C@]4(C)[C@H]3CC[C@]12C [progesterone],observed for 9-cis retinoic acid and all-trans-retinoic acids only
4,C[C@]12CC[C@H]3[C@@H](CCC4=CC(=O)CC[C@@]43C)[C@@H]1CC[C@@H]2O [testosterone],observed for 9-cis retinoic acid and all-trans-retinoic acids only
